Reference: US5486532A, “Benzospiroalkenes” (Adir et Compagnie, priority 1993, dated 1996)
Where a name gives a salt, the structure may show the parent alone. Read-outs that look alike come from different tables or passages of the source.

What was measured:
[1] = tested on: loss of righting reflex induced by xylazine in rats; assay: Antagonism of the loss of righting reflex induced by xylazine in rats; type: in vivo, male Wistar rats; conditions: Rattus norvegicus, sc, 1 h, read-out: Antagonism of the loss of righting reflex induced by xylazine ED50
Experimental: (§1) Animals and environment The animals used are male Wistar rats (IFFA CREDO). They weigh between 200 and 250 g at the time of the experiment. The rats live in an animal house, in cages, four to a cage, with free access to food and drinking water, for one week before being studied. 24 hours before the experiment, the rats are deprived of food. The rats are transferred into the laboratory a few hours before the experiment. The animal house and the laboratory are climatically controlled at a temperature of 21 1° C. and a hygrometry of 55 5%. The lighting cycle is 12 h/12 h with the light switched on from 7.0 a.m. to 7.0 p.m. The rats are only experimented on once.
(§2) The compounds are injected subcutaneously into the rats which are placed in individual cages. 30 minutes after the injection the effect of these products on the fighting reflex is observed and a score is attributed. Immediately after, the rats receive an intraperitoneal injection of xylazine at a dose of 40 mg/kg. 30 minutes after the injection of xylazine (=60 minutes after the injection of the compounds to be tested), a new righting reflex score is attributed. In order to evaluate the righting reflex, the rats are placed gently on their backs and then released. A score of 0 is attributed to an immediate and complete righting, a score of 1 to a righting without recovery of a normal position, a score of 2 to a righting attempt but in which the rat remains stretched out on its back and a score of 3 to a complete loss of the reorienting reflex.
In order to evaluate the effect of the compounds tested on the loss of the fighting reflex induced by xylazine, a score of 2 or less is considered as an antagonistic effect. The percentage of animals which have a score of 2 or less is calculated per dose, as is the ED50 (=dose at which 50% of the animals show an antagonistic effect). The ED50 are calculated according to Litchfield and Wilcoxon.
(§3) The products are dissolved in distilled water, or distilled water with a few drops of lactic acid in the case of solubilization difficulties. The pH of the solutions is then brought to 5 using sodium hydroxide solution. All the products are administered in a volume of 10 ml/kg.

[2] = tested on: loss of the righting reflex in rats; assay: Test of loss of the righting reflex in rats, induction (agonistic effect); type: in vivo, male Wistar rats; conditions: for ED50: Rattus norvegicus, sc, 0.5 h, read-out: Induction of the loss of righting reflex ED50; for induction of a loss of the reorienting reflex (in words): rats
Experimental: as §1, §2
In order to evaluate the effect of the compounds tested on the loss of the righting reflex, a score of 1 or more is considered as an agonistic effect. The percentage of animals which have a score of 1 or more is calculated per dose, as is the ED50 (=dose at which 50% of the animals show an agonistic effect).
as §3

[3] = tested on: synthetic activity of noradrenaline in rat hippocampus; assay: Effect of α2-adrenergic ligands on the synthetic activity of noradrenaline in rat hippocampus (L-DOPA accumulation); type: in vivo, male Wistar rats; conditions: 60 minutes, n = 4
Experimental: 200-220 g male Wistar rats Iffa Credo, Illskischen, France) are individually installed in cages with free access to food and drinking water. The laboratory temperature is 21 1° C. and the percent humidity is 60 5%. The day/night cycle is 12 hours (light switched on in the morning at 7.30).
The effects of the molecules on the rate of regeneration of noradrenaline is determined 60 minutes after their administration via the subcutaneous route. […] The animals are then decapitated, their brain is removed and the hippocampus is dissected. The hippocampus is subsequently homogenized in 500 1 of 0.1M HClO4 containing 0.5% of Na2 S2 O5 and 0.5% of disodium EDTA and centrifuged at 15000 g for 15 minutes at 4° C. In order to measure the amounts of L-dihydroxyphenylalanine (L-DOPA), the precursor of noradrenaline, present, the supernatants are diluted 20 times in the chromatography mobile phase and 100 1 are analyzed by high performance liquid chromatography with electrochemical detection (Waters M460 detector, potential of the working electrode:850 mV). The column (Hypersil ODS 5 m, C18, 150 4.6 mm, Spectra Physics) is thermostatted at 25° C. […] The flow rate is 1 ml/min. The amounts of L-DOPA are determined relative to an external calibration and are compared with the amount of protein present in the hippocampi. The proteins are quantified according to the method of Smith et at. […] The average amount of L-DOPA analyzed in the animals treated by the solvent is considered as the control value (100%). The amounts analyzed in the animals treated by the molecules are then expressed as a percentage relative to this control value.
Statistics The data obtained for the control animals and the treated animals are compared with a variance analysis (ANOVA), followed by a Dunnett test. The significance limit is set at p<0.05. The data are expressed as a mean standard deviation.
Compounds The injection are made subcutaneously in a volume of 1.0 ml/kg. The substances are dissolved in sterile water with, if necessary, a few drops of lactic acid and then readjusted to a pH which is as close as possible to neutrality with sodium hydroxide. […] The doses are expressed relative to their weight of free base.

dog femoral arteries = assay: Contraction of isolated dog femoral arteries; conditions: Canis lupus familiaris
Experimental: (§4) The technique used is based on that described by Fowler et al. (J. Pharmacol. Exp. Ther., 229, 712-718, 1984). Male or female mongrel dogs of approximately 15-25 kg were used as organ sources. The animals are anesthetized with pentobarbital (30 mg/kg intravenously). The legs are incized and the blood vessels removed. They are placed in Krebs-Ringer liquid (118 mM NaCl; 25 mM NaHCO3; 10 mM Glucose; 4.7 mM KCl; 1.25 mM CaCl2; 1.19 mM MgSO4; 1.14 mM KH2 PO4) at room temperature and under a sparge of carbogen (95% O2, 5% CO2). These blood vessels are then carefully freed of their fat and then cut into rings 2 mm wide and mounted under a base tension of 4 g (femoral arteries) or 1 g (saphena veins) in tanks thermostated at 37° C. containing Krebs-Ringer liquid and constantly sparged with carbogen. A lower hook constitutes the fixed point, whereas the upper hook is connected to an isometric force sensor. The variations in tension are digitized, stored on disk and processed by an information technology system. After mounting, the organs are left to rest for 90 minutes, with rinses being carried out every 30 min. After readjustment of the base tension, a contraction is induced by a single dose of KCl (100 mM). After stabilization, washing and returning to the base line, a contraction is provoqued by a single dose of phenylephrine (submaximal concentration) in order to regulate the following contractions. After washing and returning to the baseline, an effect/concentration curve is produced by addition of cumulative doses of agonist (the space between the doses is a semi-log). This experiment makes it possible to calculate the 50% effective concentration (EC50) in the following way: the tension values are first of all converted to percentages relative to the maximum effect induced by 100 mM of KCl. This EC50 is determined by non-linear regression by the SIMPLEX method (M. S. Caceci, Byte, 340-362, 1984), calculated according to the mass action law model of L. Michaelis and M. L. Menten (Biochem. Zeitschrift, 49, 333-369, 1913).
(§5) E=(Emax*C^n)(EC^n +C^n) with E=effect; Emax=maximum effect; C=concentration; EC=EC50; n=Hill number
(§6) The products of the invention contract dog arteries and veins. The maximum for these contractions approaches that obtained with KCl.

saphena veins = assay: Contraction of isolated dog saphena veins; conditions: Canis lupus familiaris
Experimental: as §4, §5, §6

[4] = s.c., 60 minutes after injection, xylazine 40 mg/kg i.p., score of 2 or less
[5] = s.c., 30 minutes after injection, score of 1 or more
[6] = 30 minutes after xylazine 40 mg/kg i.p., distilled water pretreatment, N=10

c1ccc2c(c1)OCC(C1=NCCN1)O2 (stereo not shown) [IDAZOXAN, idazoxan]
ED50 [1, 4]: 0.24 mg/kg
ED50 [2, 5]: > 10 mg/kg
induction of a loss of the reorienting reflex (in words) [2]: inactiv

NC1=NC2(CCc3cccc(Cl)c3C2)CO1 (stereo not shown) [Example 9, Spiro[(1-oxa-2-amino-3-azacyclopent-2-ene)-4:2'-(8'-chloro-1', 2',3',4'-tetrahydronaphthalene)]hydrochloride]
Accumulation of L-DOPA ([3]; dose 0.01 mg/kg s.c.): 51 ± 7 Control percentages
Accumulation of L-DOPA ([3]; dose 0.04 mg/kg s.c.): 50 ± 7 Control percentages
Accumulation of L-DOPA ([3]; dose 0.16 mg/kg s.c.): 44 ± 2 Control percentages
Accumulation of L-DOPA ([3]; dose 0.63 mg/kg s.c.): 34 ± 2 Control percentages
ED50 [1, 4]: > 0.63 mg/kg
ED50 [2, 5]: 0.17 mg/kg
induction of a loss of the reorienting reflex (in words) [2]: behave as agonists by inducing a loss of the reorienting reflex

COc1cccc2c1CC1(CC2)CNC=N1 (stereo not shown) [Example 3, Spiro[(1,3-diazacyclopent-1-ene)-5:2'-(8'-methoxy-1',2',3', 4'-tetrahydronaphthalene)]fumarate]
EC50 (dog femoral arteries; dog femoral artery rings, cumulative doses): 3000 nM
Emax (dog femoral arteries; maximum contraction relative to 100 mM KCl, dog femoral artery, read-out: ARTERY Max): 94%
EC50 (saphena veins; dog saphena vein rings, cumulative doses): 400 nM
Emax (saphena veins; maximum contraction relative to 100 mM KCl, dog saphena vein, read-out: VEIN Max): 100%

NC1=NC2(CCc3cccc(Cl)c3C2)CO1 (single isomer, unassigned) [Example 13, Spiro[(1-oxa-2-amino-3-azacyclopent-2-ene)-4:2'-(8'-chloro-1',2', 3',4'-tetrahydronaphthalene)]hydrochloride, βisomer]
ED50 [1, 4]: > 0.63 mg/kg
ED50 [2, 5]: 0.15 mg/kg
induction of a loss of the reorienting reflex (in words) [2]: behave as agonists by inducing a loss of the reorienting reflex

Cc1cccc(C)c1N=C1NCCCS1 [XYLAZINE, xylazine]
control rats that had lost the righting reflex (in words) [2, 6]: all the control rats (N=10) had lost the fighting reflex
righting reflex score, mean±SD [2, 6]: 3±0
ED50 [2]: 6.1 mg/kg
induction of a loss of the reorienting reflex (in words) [2]: behave as agonists by inducing a loss of the reorienting reflex

Cc1ccc2c(c1C)CC1(CC2)COC(N)=N1 (stereo not shown) [Example 11, Spiro[(1-oxa-2-amino-3-azacyciopent-2-ene)-4:2'-(7-8'-dimethyl-1', 2',3',4'-tetrahydronaphthalene)]hydrochloride]
ED50 [1, 4]: > 2.5 mg/kg
ED50 [2, 5]: 1.14 mg/kg
induction of a loss of the reorienting reflex (in words) [2]: behave as agonists by inducing a loss of the reorienting reflex

Brc1c(NC2=NCCN2)ccc2nccnc12 [UK 14,304, reference compound]
Accumulation of L-DOPA ([3]; dose 0.01 mg/kg s.c.): 98 ± 13 Control percentages
Accumulation of L-DOPA ([3]; dose 0.04 mg/kg s.c.): 70 ± 2 Control percentages
Accumulation of L-DOPA ([3]; dose 0.16 mg/kg s.c.): 40 ± 3 Control percentages
Accumulation of L-DOPA ([3]; dose 0.63 mg/kg s.c.): 48 ± 7 Control percentages
ED50 [1]: > 10 mg/kg
ED50 [2]: 0.24 mg/kg
induction of a loss of the reorienting reflex (in words) [2]: behave as agonists by inducing a loss of the reorienting reflex
